From paper PMC5500509, “The prognostic biomarker L-homoarginine is a substrate of the cationic amino acid transporters CAT1, CAT2A and CAT2B” (Scientific Reports, 2017)
Like-named read-outs stand apart in the source and are kept apart here.

Experiments:
human CAT2B (SLC7A2B) [1] = target: T1, human CAT2B (SLC7A2B) (Homo sapiens, UniProt P52569); test: Inhibition of CAT2B-mediated substrate uptake in HEK CAT2B cells; assay type: cell-based
T1 construct: expressed in transfected cells
Method: (§1) Cell lines and basic cell culture conditions have previously been described, [24]. The original choice of human embryonic kidney cells (HEK293) cells for transfection with CAT1-, CAT2A- or CAT2B- was based on their reliable growth and well established propensity for transfection and cellular uptake experiments. In brief, uptake assays were performed using [^3H]-labeled substrate and human embryonic kidney (HEK293) cells stably overexpressing the empty vector only (HEK VCG418 and HEK VChygro, depending on selection conditions) or human CAT1 (HEK CAT1, gene: SLC7A1, NM_003045.4), CAT2A (HEK CAT2A, gene: SLC7A2A, NM_003046.5) or CAT2B (HEK CAT2B, SLC7A2B, NM_001008539.3). The cells were cultured in minimal essential medium containing 10% heat-inactivated fetal bovine serum, 100 U/l penicillin, 100 μg/ml streptomycin, and either G418 (800 µg/ml) or hygromycin B (260 µg/ml) at 37 °C and 5% CO2 with subculture as required. Trypsin (0.05%)-EDTA (0.02%) solution was used to detach cells. All cell culture media supplements were obtained from Invitrogen GmbH (Karlsruhe, Germany).
(§2) The transport assays were performed as previously described with minor modifications, [24]. Cells were seeded into poly-D-lysine-coated 12-well plates. Sodium butyrate (10 mmol/l) was added after 24 h of culture for 24 h to enhance CAT1, CAT2A or CAT2B protein expression. […] In order to identify the period of linear L-homoarginine uptake time dependence was assessed. Cells were incubated with the transport buffer containing 100 μmol/L L-homoarginine at 37 °C for 1, 2.5, 5, 10 and 30 min. For determination of kinetic parameters of CAT-mediated L-homoarginine transport increasing L-homoarginine concentrations and an incubation time of 2.5 min were used.
(§3) After cooling to 0 °C the cells were washed three times with ice-cold transport buffer and lysed with 0.2% SDS. The intracellular accumulation of radioactivity was determined by liquid scintillation counting (TriCarb 2800; PerkinElmer Life and Analytical Sciences, Inc.) after adding 4 ml of scintillation solution (Ultima Gold XR; PerkinElmer Life and Analytical Sciences, Inc., Rodgau-Jügesheim, Germany). A bicinchoninic acid assay was used to assess the protein concentrations. […]
(§4) Statistical analysis was performed using GraphPad Prism 5 (version 5.01, 2007, GraphPad Software, San Diego, CA, USA). Net transport data were calculated as the difference of uptake from cells transfected with the respective CAT transporter and the corresponding empty control vector. […] KM-values for the uptake transport were calculated using Michaelis–Menten enzyme kinetics. The corresponding IC50 values for inhibition were calculated by fitting the data to a sigmoid dose–response regression curve. […]

human CAT2A (SLC7A2A) [2] = target: T2, human CAT2A (SLC7A2A) (Homo sapiens, UniProt P52569); test: Inhibition of CAT2A-mediated substrate uptake in HEK CAT2A cells; assay type: cell-based; settings: for inhibition of CAT2A-mediated transport of L-homoarginine: substrate L-homoarginine 100 µmol/l, inhibitor 1-10000 µmol/l, IC50 not calculable
T2 construct: expressed in transfected cells
Method: as §1, with “All cell culture media supplements were obtained from Invitrogen GmbH (Karlsruhe, Germany).” left out
The transport assays were performed as previously described with minor modifications, [24]. […] In order to identify the period of linear L-homoarginine uptake time dependence was assessed. […]
as §3, with “Germany).” for “Germany). A bicinchoninic acid assay was used to assess the protein concentrations.”
as §4

human CAT1 (SLC7A1) [3] = target: T3, human CAT1 (SLC7A1) (Homo sapiens, UniProt P30825); test: Inhibition of CAT1-mediated substrate uptake in HEK CAT1 cells; assay type: cell-based
T3 construct: expressed in transfected cells
Method: as §1, §2, §3, §4

fibroblasts = test system: fibroblasts; set-up: method as in PMID 7040384; settings: read-out: KM for uptake of L-homoarginine by cells; cited from earlier work
human CAT2B (SLC7A2B) [4] = target: T1, human CAT2B (SLC7A2B); test: CAT2B-mediated uptake of [3H]-L-homoarginine in HEK293 cells overexpressing CAT2B; assay type: cell-based
Method: as §1
as §2, with “For determination of kinetic parameters of CAT-mediated L-homoarginine transport increasing L-homoarginine concentrations and an incubation time of 2.5 min were used.” left out
as §4

rat hepatocytes = test system: rat hepatocytes; set-up: method as in PMID 7068644; settings: read-out: KM for uptake of L-homoarginine by cells; cited from earlier work
human CAT1 (SLC7A1) [5] = target: T3, human CAT1 (SLC7A1); test: CAT1-mediated uptake of [3H]-L-homoarginine in HEK293 cells overexpressing CAT1; assay type: cell-based
Method: as §1
as §2, with “For determination of kinetic parameters of CAT-mediated L-homoarginine transport increasing L-homoarginine concentrations and an incubation time of 2.5 min were used.” left out
as §4

[6] = set-up: method as in PMID 27434056; settings: healthy volunteers, augmented from 2.9 µmol/l; cited from earlier work
human CAT2A (SLC7A2A) [7] = target: T2, human CAT2A (SLC7A2A); test: CAT2A-mediated uptake of [3H]-L-homoarginine in HEK293 cells overexpressing CAT2A; assay type: cell-based
Method: as §1
as §2, with “For determination of kinetic parameters of CAT-mediated L-homoarginine transport increasing L-homoarginine concentrations and an incubation time of 2.5 min were used.” left out
as §4

[8] = substrate L-homoarginine 100 µmol/l, inhibitor 1-10000 µmol/l, read-out: IC50 for inhibition of CAT2B-mediated uptake of L-homoarginine
[9] = net uptake, 2.5 min incubation, 37 °C

T1 sequence (P52569 whole entry): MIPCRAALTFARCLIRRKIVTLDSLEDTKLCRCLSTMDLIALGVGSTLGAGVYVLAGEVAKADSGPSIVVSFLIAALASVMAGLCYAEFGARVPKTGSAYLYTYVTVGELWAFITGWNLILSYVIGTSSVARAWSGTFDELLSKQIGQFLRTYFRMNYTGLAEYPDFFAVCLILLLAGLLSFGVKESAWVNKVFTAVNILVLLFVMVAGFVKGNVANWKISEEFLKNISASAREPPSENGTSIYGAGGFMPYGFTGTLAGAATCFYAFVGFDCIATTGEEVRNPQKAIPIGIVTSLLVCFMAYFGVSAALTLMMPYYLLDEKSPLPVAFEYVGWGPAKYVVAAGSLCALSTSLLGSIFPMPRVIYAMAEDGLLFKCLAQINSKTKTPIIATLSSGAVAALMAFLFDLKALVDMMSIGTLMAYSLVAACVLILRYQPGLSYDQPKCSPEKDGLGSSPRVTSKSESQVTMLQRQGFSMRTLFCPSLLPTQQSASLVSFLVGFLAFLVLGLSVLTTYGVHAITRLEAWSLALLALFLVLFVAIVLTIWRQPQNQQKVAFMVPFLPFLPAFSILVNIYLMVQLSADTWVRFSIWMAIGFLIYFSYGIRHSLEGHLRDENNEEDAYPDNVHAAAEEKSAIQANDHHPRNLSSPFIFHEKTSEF
T2 sequence (P52569 1-697 isoform P52569-2): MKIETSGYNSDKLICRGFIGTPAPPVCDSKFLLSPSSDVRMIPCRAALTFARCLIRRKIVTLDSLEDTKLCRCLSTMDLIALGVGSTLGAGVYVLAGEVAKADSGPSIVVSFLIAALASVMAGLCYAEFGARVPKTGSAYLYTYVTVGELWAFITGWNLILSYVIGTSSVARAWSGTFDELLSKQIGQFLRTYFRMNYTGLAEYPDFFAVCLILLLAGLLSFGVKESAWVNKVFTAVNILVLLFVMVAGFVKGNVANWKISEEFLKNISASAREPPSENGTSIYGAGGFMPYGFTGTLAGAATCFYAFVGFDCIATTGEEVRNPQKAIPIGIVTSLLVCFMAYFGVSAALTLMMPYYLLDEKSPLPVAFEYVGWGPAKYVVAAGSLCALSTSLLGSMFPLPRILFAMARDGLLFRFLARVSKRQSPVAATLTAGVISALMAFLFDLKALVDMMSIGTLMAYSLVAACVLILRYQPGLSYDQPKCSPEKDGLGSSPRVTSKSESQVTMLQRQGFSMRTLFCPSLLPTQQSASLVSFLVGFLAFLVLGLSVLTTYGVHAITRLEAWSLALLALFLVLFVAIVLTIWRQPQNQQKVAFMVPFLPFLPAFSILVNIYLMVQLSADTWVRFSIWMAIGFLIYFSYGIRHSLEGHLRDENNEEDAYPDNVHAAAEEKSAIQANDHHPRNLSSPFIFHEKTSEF
T3 sequence (P30825 whole entry): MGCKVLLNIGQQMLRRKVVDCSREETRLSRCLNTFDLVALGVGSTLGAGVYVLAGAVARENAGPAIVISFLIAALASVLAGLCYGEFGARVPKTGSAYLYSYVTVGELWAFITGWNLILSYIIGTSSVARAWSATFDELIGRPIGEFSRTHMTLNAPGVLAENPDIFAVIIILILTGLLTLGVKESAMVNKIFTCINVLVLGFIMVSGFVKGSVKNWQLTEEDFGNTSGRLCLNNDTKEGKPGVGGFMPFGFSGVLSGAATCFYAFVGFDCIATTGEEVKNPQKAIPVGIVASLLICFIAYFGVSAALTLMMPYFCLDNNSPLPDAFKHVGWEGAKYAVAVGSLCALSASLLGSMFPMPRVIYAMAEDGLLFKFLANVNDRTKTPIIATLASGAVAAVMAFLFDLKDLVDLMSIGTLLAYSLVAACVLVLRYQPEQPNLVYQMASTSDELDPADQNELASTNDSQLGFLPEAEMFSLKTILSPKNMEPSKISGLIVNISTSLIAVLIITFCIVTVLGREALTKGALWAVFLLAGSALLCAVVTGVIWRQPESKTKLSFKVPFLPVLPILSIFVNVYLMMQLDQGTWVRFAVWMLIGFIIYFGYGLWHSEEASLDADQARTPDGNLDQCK

N=C(N)NCCC[C@H](N)C(=O)O [L-arginine, reference compound]
IC50 (human CAT2B (SLC7A2B) [1]; [8]): 1440 µM | inhibition of CAT2A-mediated transport of L-homoarginine (human CAT2A (SLC7A2A) [2]): could only be inhibited by very high (10000 µmol/l) concentrations | inhibition of CAT1-mediated net uptake of L-homoarginine at physiological concentrations (human CAT1 (SLC7A1) [3]; substrate L-homoarginine 2 µmol/l, inhibitor L-arginine 100 µmol/l, p < 0.01): significantly inhibited

CN(C)C(N)=NCCC[C@H](N)C(=O)O [ADMA, asymmetric dimethylarginine, reference compound]
IC50 (human CAT2B (SLC7A2B) [1]; [8]): 608 µM | inhibition of CAT2A-mediated transport of L-homoarginine (human CAT2A (SLC7A2A) [2]): could only be inhibited by very high (10000 µmol/l) concentrations | IC50 (human CAT1 (SLC7A1) [3]; substrate L-homoarginine 100 µmol/l, inhibitor 1-10000 µmol/l, read-out: IC50 for inhibition of CAT1-mediated uptake of L-homoarginine): 379 µM

NC(N)=NCCCC[C@H](N)C(=O)O [L-homoarginine]
Km (fibroblasts): 40 µM | cellular uptake of L-homoarginine vs control cells (human CAT2B (SLC7A2B) [4]; L-homoarginine 100 µmol/l, HEK CAT2B vs control cells, p < 0.001): 2.2 fold | apparent Vmax of CAT2B-mediated uptake (human CAT2B (SLC7A2B) [4]; [9]): 11 ± 0.2 nmol × mg protein^−1 × min^−1 | Km (human CAT2B (SLC7A2B) [4]; net uptake, 2.5 min incubation, 37 °C, read-out: apparent KM of CAT2B-mediated uptake): 523 ± 35 µM | Km (rat hepatocytes): 300 µM | IC50 (human CAT2B (SLC7A2B) [1]; read-out: IC50 for inhibition of CAT2B-mediated uptake of L-arginine, substrate L-arginine 1000 µmol/l, inhibitor 1–100000 µmol/l): 1220 µM | IC50 (human CAT2B (SLC7A2B) [1]; substrate ADMA 100 µmol/l, inhibitor 1–100000 µmol/l, read-out: IC50 for inhibition of CAT2B-mediated uptake of ADMA): 1860 µM | IC50 (human CAT2A (SLC7A2A) [2]; substrate ADMA 100 µmol/l, inhibitor 1–100000 µmol/l): 9240 µM | cellular uptake of L-homoarginine vs control cells (human CAT1 (SLC7A1) [5]; L-homoarginine 100 µmol/l, HEK CAT1 vs HEK VCG418, p < 0.001): 7 fold | apparent Vmax of CAT1-mediated uptake (human CAT1 (SLC7A1) [5]; [9]): 12 ± 0.1 nmol × mg protein^−1 × min^−1 | Km (human CAT1 (SLC7A1) [5]; net uptake, 2.5 min incubation, 37 °C, read-out: apparent KM of CAT1-mediated uptake): 175 ± 7 µM | IC50 (human CAT1 (SLC7A1) [3]; read-out: IC50 for inhibition of CAT1-mediated uptake of L-arginine, substrate L-arginine 1000 µmol/l, inhibitor 1–100000 µmol/l): 1320 µM | IC50 (human CAT1 (SLC7A1) [3]; substrate ADMA 100 µmol/l, inhibitor 1–100000 µmol/l, read-out: IC50 for inhibition of CAT1-mediated uptake of ADMA): 642 µM | mean plasma concentration after supplementation [6]: 17.3 µM | cellular uptake of L-homoarginine vs control cells (human CAT2A (SLC7A2A) [7]; L-homoarginine 100 µmol/l, HEK CAT2A vs control cells, p < 0.001): 1.6 fold | saturation of CAT2A-mediated uptake (human CAT2A (SLC7A2A) [7]; increasing L-homoarginine concentrations): could not be reached | Vmax of CAT2A-mediated uptake (human CAT2A (SLC7A2A) [7]; net uptake, 2.5 min, 37 °C, only estimated, limited by maximally attainable L-homoarginine concentration): > 20 nmol × mg protein^−1 × min^−1
